The results in this text go back to ChEMBL document CHEMBL5375952, “Discovery of Novel 8-Hydroxyquinoline Derivatives with Potent In Vitro and In Vivo Antifungal Activity” (J Med Chem, 2023).

Series [1] can be described thus: Toxicity in C57BL/6 mouse infected with Candida albicans SC5314 assessed as animal death at 0.25 mg/kg, ip measured after 7 days. Format: organism-based. The following applies: in vivo, 168 h, time 7 day.
In series [2] the test system is Candida albicans. Put plainly: Inhibition of biofilm formation of Candida albicans SC5314 incubated for 24 hrs by XTT assay. Format: functional, organism-based. As to conditions: dose <= 16.0 µg/ml.
Series [3] concerns Candida albicans. Put plainly: Antifungal activity against Candida albicans SC5314 infected in C57BL/6 mouse assessed as mean fungal burden at 0.25 mg/kg, ip measured after 46 hrs by plate count method (reference value: 6.902 log10CFU/ml). It counts as functional.
The nature of series [4]: Toxicity in C57BL/6 mouse infected with Candida albicans SC5314 assessed as animal survival at 2 mg/kg, ip measured after 20 days relative to control. Format: organism-based. As to conditions: in vivo, 480 h, time 20 day.
The subject of series [5] is Candida albicans. Put plainly: Synergistic antifungal activity against FLC-resistant Candida albicans 64548 assessed as fungal growth inhibition incubated for 48 hrs in presence of FLC by broth microdilution method. Format: functional.
The test system of series [6] is Candida albicans. Put plainly: Synergistic inhibition of biofilm formation of Candida albicans SC5314 incubated for 24 hrs in presence of FLC by XTT assay. As to conditions: dose <= 16.0 µg/ml. Format: functional, organism-based. (Tetrazolium assays rely on reduction of a dye to a coloured formazan, in cell work by metabolically active cells.)
In series [7] the test system is Candida albicans. Put plainly: Synergistic antifungal activity against FLC-resistant Candida albicans 17 assessed as fractional inhibitory concentration index incubated for 48 hrs in presence of FLC by broth microdilution method. It counts as functional. For orientation: Broth dilution looks for growth in wells or tubes with falling amounts of substance.
A short description of series [8]: Half life in Sprague-Dawley rat at 5 mg/kg, po by LC-MS/MS analysis. The following applies: in vivo. It counts as ADME, organism-based.
The test system of series [9] is Candida albicans. Put plainly: Synergistic antifungal activity against FLC-resistant Candida albicans 8 assessed as fungal growth inhibition incubated for 48 hrs in presence of FLC by broth microdilution method. It counts as functional.
For series [10], the system named is Candida albicans. Put plainly: Synergistic antifungal activity against FLC-resistant Candida albicans 12 assessed as fractional inhibitory concentration index incubated for 48 hrs in presence of FLC by broth microdilution method. It counts as functional.
Series [11] concerns Candida albicans. Put plainly: Synergistic antifungal activity against FLC-resistant Candida albicans 10 assessed as fractional inhibitory concentration index incubated for 48 hrs in presence of FLC by broth microdilution method. It counts as functional.
Series [12] deals with Candida albicans. Put plainly: Synergistic antifungal activity against FLC-resistant Candida albicans 710452 assessed as MIC of FLC incubated for 48 hrs by broth microdilution method. Format: functional.
The nature of series [13]: MRT (0 to t) in Sprague-Dawley rat at 5 mg/kg, po by LC-MS/MS analysis. It counts as ADME, organism-based. As to conditions: in vivo.
Series [14] relates to Candida albicans. Put plainly: Synergistic antifungal activity against FLC-resistant Candida albicans 14 assessed as fungal growth inhibition incubated for 48 hrs in presence of FLC by broth microdilution method. Format: functional.
The subject of series [15] is Candida albicans. Put plainly: Synergistic antifungal activity against FLC-resistant Candida albicans 5740 assessed as fungal growth inhibition incubated for 48 hrs in presence of FLC by broth microdilution method. It counts as functional.
The subject of series [16] is Candida albicans. Put plainly: Synergistic antifungal activity against FLC-resistant Candida albicans 17 assessed as MIC of FLC incubated for 48 hrs by broth microdilution method. It counts as functional.
Series [17] concerns Candida albicans. Put plainly: Synergistic antifungal activity against FLC-resistant Candida albicans 819 assessed as fungal growth inhibition incubated for 48 hrs in presence of FLC by broth microdilution method. It counts as functional.
Series [18] has as its system Candida albicans. Put plainly: Synergistic antifungal activity against FLC-resistant Candida albicans 11 assessed as fractional inhibitory concentration index incubated for 48 hrs in presence of FLC by broth microdilution method. It counts as functional.
The test system of series [19] is Candida albicans. Put plainly: Synergistic antifungal activity against FLC-resistant Candida albicans 710419 assessed as MIC of FLC incubated for 48 hrs by broth microdilution method. It counts as functional.
Series [20] has as its system Candida albicans. Put plainly: Synergistic antifungal activity against FLC-resistant Candida albicans 100 assessed as fractional inhibitory concentration index incubated for 48 hrs in presence of FLC by broth microdilution method. Format: functional.
Series [21] is described as follows: MRT (0 to t) in Sprague-Dawley rat at 2 mg/kg, iv by LC-MS/MS analysis. Format: ADME, organism-based. The following applies: in vivo.
The test system of series [22] is Candida albicans. Put plainly: Synergistic antifungal activity against FLC-resistant Candida albicans 385 assessed as fractional inhibitory concentration index incubated for 48 hrs in presence of FLC by broth microdilution method. It counts as functional.
The test system of series [23] is Candida albicans. Put plainly: Synergistic antifungal activity against FLC-resistant Candida albicans 710513 assessed as fungal growth inhibition incubated for 48 hrs in presence of FLC by broth microdilution method. It counts as functional.
In series [24] the test system is Candida albicans. Put plainly: Synergistic antifungal activity against FLC-resistant Candida albicans 11 assessed as MIC of FLC incubated for 48 hrs by broth microdilution method. It counts as functional.
The test system of series [25] is Candida albicans. Put plainly: Synergistic antifungal activity against FLC-resistant Candida albicans 385 assessed as MIC of FLC incubated for 48 hrs by broth microdilution method. Format: functional.
Series [26] has as its system Candida albicans. Put plainly: Synergistic antifungal activity against FLC-resistant Candida albicans 605141 assessed as fungal growth inhibition incubated for 48 hrs in presence of FLC by broth microdilution method. It counts as functional.
The test system of series [27] is Candida albicans. Put plainly: Synergistic antifungal activity against FLC-resistant Candida albicans 14 assessed as fractional inhibitory concentration index incubated for 48 hrs in presence of FLC by broth microdilution method. Format: functional.
A short description of series [28]: Oral bioavailability in Sprague-Dawley rat at 5 mg/kg by LC-MS/MS analysis. Format: ADME, organism-based. As to conditions: in vivo.
Series [29] has as its system Candida albicans. Put plainly: Synergistic antifungal activity against FLC-resistant Candida albicans 17 assessed as fungal growth inhibition incubated for 48 hrs in presence of FLC by broth microdilution method. It counts as functional.
Series [30] concerns Candida albicans. Put plainly: Synergistic antifungal activity against FLC-resistant Candida albicans 1221 assessed as fractional inhibitory concentration index incubated for 48 hrs in presence of FLC by broth microdilution method. It counts as functional.
Series [31] relates to Candida albicans. Put plainly: Synergistic antifungal activity against FLC-resistant Candida albicans 249 assessed as MIC of FLC incubated for 48 hrs by broth microdilution method. Format: functional.
In series [32] the test system is Candida albicans. Put plainly: Synergistic antifungal activity against FLC-resistant Candida albicans 8 assessed as MIC of FLC incubated for 48 hrs by broth microdilution method. Format: functional.
Series [33] has as its system Candida albicans. Put plainly: Synergistic antifungal activity against FLC-resistant Candida albicans 1221 assessed as fungal growth inhibition incubated for 48 hrs in presence of FLC by broth microdilution method. It counts as functional.
For series [34], the system named is Candida albicans. Put plainly: Synergistic antifungal activity against FLC-resistant Candida albicans 10 assessed as fungal growth inhibition incubated for 48 hrs in presence of FLC by broth microdilution method. It counts as functional.
For series [35], the system named is Candida albicans. Put plainly: Synergistic antifungal activity against FLC-resistant Candida albicans 379 assessed as fractional inhibitory concentration index incubated for 48 hrs in presence of FLC by broth microdilution method. Format: functional.
Series [36] deals with Candida albicans. Put plainly: Synergistic antifungal activity against FLC-resistant Candida albicans 8 assessed as fractional inhibitory concentration index incubated for 48 hrs in presence of FLC by broth microdilution method. Format: functional.
Series [37] concerns Candida albicans. Put plainly: Synergistic inhibition of biofilm formation of Candida albicans SC5314 at 2 ug/ml incubated for 24 hrs in presence of 0.0625 ug/ml of FLC by XTT assay relative to control. Format: functional.
The subject of series [38] is Candida albicans. Put plainly: Synergistic antifungal activity against FLC-resistant Candida albicans 395 assessed as fractional inhibitory concentration index incubated for 48 hrs in presence of FLC by broth microdilution method. Format: functional.
Series [39] has as its system Candida albicans. Put plainly: Synergistic antifungal activity against FLC-resistant Candida albicans 64548 assessed as fractional inhibitory concentration index incubated for 48 hrs in presence of FLC by broth microdilution method. It counts as functional.
Series [40] deals with Candida albicans. Put plainly: Antifungal activity against Candida albicans SC5314 assessed as fungal growth inhibition incubated for 48 hrs in presence of Cu2+ by broth microdilution method (reference value: […] ug/ml). It counts as functional.

In the case of `OC(Cn1cncn1)(Cn1cncn1)c1ccc(F)cc1F` [FLUCONAZOLE], the Activity entry is reported as “Toxic” in series [1] and 5.66 log10CFU/ml in series [3]. In series [2], the inhibition entry was “Dose-Dependent Effect”.

Regarding `CCN(CC)c1ccc(C(NC(=O)C(C)C)c2ccc3cccnc3c2O)cc1` (stereo not given), in series [4], the Survival is recorded as 20%. In addition, the MIC in series [5] worked out at 0.031 µg/mL; in series [9], 0.031 µg/mL; in [12], 0.25 µg/mL; in series [14], 0.016 µg/mL; in series [15], 0.016 µg/mL; in [16], 0.125 µg/mL. The MIC in series [17] stood at 0.016 µg/mL; in [19], 0.25 µg/mL; in [23] it was 0.016 µg/mL; in [24], 0.25 µg/mL; in [25], 2 µg/mL; in series [26], 0.031 µg/mL. For the same molecule, the MIC in series [29] stood at 0.016 µg/mL; in [31], 0.125 µg/mL; in series [32] it was 0.031 µg/mL; in series [33], 0.031 µg/mL; in [34], 0.008 µg/mL. Moreover, the inhibition entry in [6] was “Dose-Dependent Effect”. Moreover, the “fractional inhibitory concentration index (FICI)” value worked out at 0.035 in series [7]; 0.062 in series [10]; 0.07 in series [11]; 0.039 in series [18]; 0.14 in [20]; 0.078 in [22]. For the same molecule, the “fractional inhibitory concentration index (FICI)” value was determined as 0.133 in series [27]; 0.126 in series [30]; 0.039 in series [35]; 0.252 in series [36]; 0.133 in series [38]; 0.063 in [39]. In series [8], the half-life is 1 h. Also, the MRT last is 0.813 h in series [13] and 2.05 h in series [21]. The same molecule returned a bioavailability in series [28] of 5.7%. In addition, the inhibition at 2 µg/mL in series [37] is 15.6%.

As for `Oc1c(I)cc(Cl)c2cccnc12` [CLIOQUINOL], the MIC in series [40] was determined as 128 µg/mL.

As a reminder, the inhibition is the change of the read-out against control, counted positive when it falls. As usually defined, the MIC is the lowest concentration found to suppress growth. What is called half-life is the time needed for the level to fall by half in the phase considered. Read a high half-life as slow loss. One may read the MRT last as the average time that molecules of a dose stay in the body. By bioavailability is commonly meant dose-corrected exposure relative to a reference, in per cent. High values mean good availability, low ones poor availability.
